Experiments:
KDM6B = KDM6B (Homo sapiens, UniProt O15054); test: KDM6B enzymatic assay (AlphaLISA); type: biochemical
Method: (§1) The following assay protocol was used for all histone demethylases tested except KDM1A, KDM5A, B, and D, which are described below. Compounds were serially diluted into a 384-well Alpha plate as a DMSO solution and mixed with 5 μL reaction buffer (buffer A) containing 50 mM HEPES (pH 7.0), 0.1% BSA, and 0.003% Tween-20. The enzyme of interest was pre-incubated with 15 μM of Fe^2+ for 10 min (except 30 min for KDM2B) in reaction buffer A. 5 μL of the enzyme mixture was added to each of the compound-containing wells and incubated for 10 min. The reaction was started by addition of a 5 μL mixture containing 300 nM peptide substrate, 75 μM L-ascorbic acid, and 30 μM α-ketoglutarate in buffer A. This final 15 μL of reaction mixture was incubated for 20 min for KDM5B and 1 hour for the other KDM enzymes. The reaction was quenched with 10 μL of diluted AlphaLISA Acceptor beads (1:400) in Epigenetics Buffer and incubated for 60 min. The Donor beads were diluted 1:400 into Epigenetics Buffer in the dark and 10 μL of this was added to each well and incubated for another 60 min in the dark. The assay plates were read on an Enspire plate reader (PerkinElmer) using a standard AlphaLISA program.
(§2) Data was analyzed using GraphPad Prism 6.0 (La Jolla, CA). […] IC50 values were calculated as an average of at least two independent experiments.

KDM7B = KDM7B (Homo sapiens, UniProt Q9UPP1); test: KDM7B enzymatic assay (AlphaLISA); type: biochemical; conditions: enzyme concentration 2.5 nM
Method: as §1, §2

HBV (genotype C, GTC) = system: HBV (genotype C, GTC); parameters: method as in PMID 31226346; conditions: humanized mouse model of HBV infection; cited from earlier work
KDM5B = biological target: T1, KDM5B (Homo sapiens, UniProt Q9UGL1); test: KDM5B enzymatic assay (CisBio HTRF); type: biochemical
T1 construct: purchased Reaction Biology Corp (assay run there as a contract service)
T1 sequence (Q9UGL1 whole entry): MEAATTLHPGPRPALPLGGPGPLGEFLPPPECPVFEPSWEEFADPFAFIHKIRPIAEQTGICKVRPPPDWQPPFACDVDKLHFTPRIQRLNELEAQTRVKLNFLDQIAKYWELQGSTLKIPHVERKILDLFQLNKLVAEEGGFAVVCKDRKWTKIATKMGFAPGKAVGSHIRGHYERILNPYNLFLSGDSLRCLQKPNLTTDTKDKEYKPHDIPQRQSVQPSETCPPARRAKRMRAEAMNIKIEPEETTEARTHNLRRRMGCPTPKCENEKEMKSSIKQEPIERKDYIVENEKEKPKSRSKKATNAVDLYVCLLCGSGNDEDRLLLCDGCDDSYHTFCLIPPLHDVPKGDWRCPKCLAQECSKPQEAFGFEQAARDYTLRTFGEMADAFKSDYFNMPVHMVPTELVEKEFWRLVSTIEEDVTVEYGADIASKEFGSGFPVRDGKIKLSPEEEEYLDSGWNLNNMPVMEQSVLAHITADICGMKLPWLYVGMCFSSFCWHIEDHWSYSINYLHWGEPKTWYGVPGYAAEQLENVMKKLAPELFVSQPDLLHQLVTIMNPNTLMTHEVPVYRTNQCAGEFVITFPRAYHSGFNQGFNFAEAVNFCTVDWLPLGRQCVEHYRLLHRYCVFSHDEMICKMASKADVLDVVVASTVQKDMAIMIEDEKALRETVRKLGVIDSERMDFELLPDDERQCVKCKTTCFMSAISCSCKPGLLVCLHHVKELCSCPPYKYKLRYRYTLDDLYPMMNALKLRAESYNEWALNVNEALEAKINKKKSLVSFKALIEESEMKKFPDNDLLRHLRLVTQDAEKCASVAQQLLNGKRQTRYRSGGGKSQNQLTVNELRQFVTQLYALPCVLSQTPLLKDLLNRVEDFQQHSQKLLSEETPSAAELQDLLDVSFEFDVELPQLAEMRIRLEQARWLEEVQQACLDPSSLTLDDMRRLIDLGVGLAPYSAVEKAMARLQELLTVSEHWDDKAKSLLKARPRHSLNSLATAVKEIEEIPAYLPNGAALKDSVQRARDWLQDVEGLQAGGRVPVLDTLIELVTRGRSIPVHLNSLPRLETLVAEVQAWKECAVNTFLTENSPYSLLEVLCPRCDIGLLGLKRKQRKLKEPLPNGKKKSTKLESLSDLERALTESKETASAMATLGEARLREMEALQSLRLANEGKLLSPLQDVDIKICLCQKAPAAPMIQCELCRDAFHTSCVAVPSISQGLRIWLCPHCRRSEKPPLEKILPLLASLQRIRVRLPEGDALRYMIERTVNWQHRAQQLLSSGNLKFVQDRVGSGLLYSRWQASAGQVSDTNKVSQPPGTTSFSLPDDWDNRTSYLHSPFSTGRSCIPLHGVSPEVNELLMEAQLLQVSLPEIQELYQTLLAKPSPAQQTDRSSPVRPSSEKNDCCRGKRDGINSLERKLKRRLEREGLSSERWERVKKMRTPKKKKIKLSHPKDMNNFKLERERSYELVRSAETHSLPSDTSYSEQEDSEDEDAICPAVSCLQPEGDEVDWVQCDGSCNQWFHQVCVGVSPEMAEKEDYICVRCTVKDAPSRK
Method: (§3) KDM5A and 5B were tested using CisBio HTRF assay platform by Reaction Biology Corp (Malvern, PA). All concentrations are final unless noted otherwise. Inhibitors were pre-incubated with 2.5 nM KDM5A or 1.2 nM KDM5B in a 5 μL reaction mixture containing 50 mM HEPES (pH 7.5), 50 mM NaCl, 0.01% Tween 20, 0.01% BSA for 15 min temperature. The reaction was initiated by addition of 5 μL of 50 nM Biotin-H3K4me3 and incubated with gentle shaking for 45 min at RT. The reaction was quenched with 10 mM EDTA and 200 mM potassium fluoride. Upon addition of Eu-Antibody and Streptavidine-XL665, the mixture was incubated for 2 hours in the dark. The fluorescence resonance energy transfer was measured using an excitation wavelength of 320 nm and emission wavelength of 665 nm on an Envision plate reader (Perkin Elmer).
as §2

KDM4B = biological target: T2, KDM4B (Homo sapiens, UniProt O94953); test: KDM4B enzymatic assay (AlphaLISA); type: biochemical; conditions: enzyme concentration 1 nM
T2 sequence (O94953 1-1096): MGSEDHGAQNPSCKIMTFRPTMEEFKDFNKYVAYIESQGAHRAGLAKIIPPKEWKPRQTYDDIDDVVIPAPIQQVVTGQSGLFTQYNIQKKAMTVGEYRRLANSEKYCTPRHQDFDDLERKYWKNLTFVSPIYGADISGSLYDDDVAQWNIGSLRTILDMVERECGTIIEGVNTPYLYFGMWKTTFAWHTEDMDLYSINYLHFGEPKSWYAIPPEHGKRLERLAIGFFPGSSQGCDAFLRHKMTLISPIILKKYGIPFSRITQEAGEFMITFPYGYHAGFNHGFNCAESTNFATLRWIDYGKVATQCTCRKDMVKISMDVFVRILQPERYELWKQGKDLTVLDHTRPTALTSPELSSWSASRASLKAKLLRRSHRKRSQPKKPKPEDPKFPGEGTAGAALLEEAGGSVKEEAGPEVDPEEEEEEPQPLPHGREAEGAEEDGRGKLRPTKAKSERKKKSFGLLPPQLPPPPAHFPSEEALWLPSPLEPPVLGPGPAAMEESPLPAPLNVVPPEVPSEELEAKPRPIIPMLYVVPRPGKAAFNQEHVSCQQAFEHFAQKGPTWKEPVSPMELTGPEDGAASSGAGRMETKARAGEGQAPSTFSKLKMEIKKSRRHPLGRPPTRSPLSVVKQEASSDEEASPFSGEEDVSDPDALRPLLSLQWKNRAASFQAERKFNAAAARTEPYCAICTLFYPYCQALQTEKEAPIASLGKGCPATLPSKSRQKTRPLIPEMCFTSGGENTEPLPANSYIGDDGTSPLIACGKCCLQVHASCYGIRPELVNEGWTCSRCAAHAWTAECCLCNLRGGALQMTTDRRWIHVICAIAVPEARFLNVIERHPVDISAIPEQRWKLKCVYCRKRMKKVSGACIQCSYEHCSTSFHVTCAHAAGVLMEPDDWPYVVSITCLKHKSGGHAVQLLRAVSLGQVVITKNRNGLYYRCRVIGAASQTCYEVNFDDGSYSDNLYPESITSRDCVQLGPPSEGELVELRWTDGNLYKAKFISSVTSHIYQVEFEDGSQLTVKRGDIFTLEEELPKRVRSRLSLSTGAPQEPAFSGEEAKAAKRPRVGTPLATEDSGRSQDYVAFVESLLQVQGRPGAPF
Method: as §1, §2

KDM6A = KDM6A (Homo sapiens, UniProt O15550); test: KDM6A enzymatic assay (AlphaLISA); type: biochemical; conditions: enzyme concentration 2 nM
Chain of KDM6A (O15550 whole entry): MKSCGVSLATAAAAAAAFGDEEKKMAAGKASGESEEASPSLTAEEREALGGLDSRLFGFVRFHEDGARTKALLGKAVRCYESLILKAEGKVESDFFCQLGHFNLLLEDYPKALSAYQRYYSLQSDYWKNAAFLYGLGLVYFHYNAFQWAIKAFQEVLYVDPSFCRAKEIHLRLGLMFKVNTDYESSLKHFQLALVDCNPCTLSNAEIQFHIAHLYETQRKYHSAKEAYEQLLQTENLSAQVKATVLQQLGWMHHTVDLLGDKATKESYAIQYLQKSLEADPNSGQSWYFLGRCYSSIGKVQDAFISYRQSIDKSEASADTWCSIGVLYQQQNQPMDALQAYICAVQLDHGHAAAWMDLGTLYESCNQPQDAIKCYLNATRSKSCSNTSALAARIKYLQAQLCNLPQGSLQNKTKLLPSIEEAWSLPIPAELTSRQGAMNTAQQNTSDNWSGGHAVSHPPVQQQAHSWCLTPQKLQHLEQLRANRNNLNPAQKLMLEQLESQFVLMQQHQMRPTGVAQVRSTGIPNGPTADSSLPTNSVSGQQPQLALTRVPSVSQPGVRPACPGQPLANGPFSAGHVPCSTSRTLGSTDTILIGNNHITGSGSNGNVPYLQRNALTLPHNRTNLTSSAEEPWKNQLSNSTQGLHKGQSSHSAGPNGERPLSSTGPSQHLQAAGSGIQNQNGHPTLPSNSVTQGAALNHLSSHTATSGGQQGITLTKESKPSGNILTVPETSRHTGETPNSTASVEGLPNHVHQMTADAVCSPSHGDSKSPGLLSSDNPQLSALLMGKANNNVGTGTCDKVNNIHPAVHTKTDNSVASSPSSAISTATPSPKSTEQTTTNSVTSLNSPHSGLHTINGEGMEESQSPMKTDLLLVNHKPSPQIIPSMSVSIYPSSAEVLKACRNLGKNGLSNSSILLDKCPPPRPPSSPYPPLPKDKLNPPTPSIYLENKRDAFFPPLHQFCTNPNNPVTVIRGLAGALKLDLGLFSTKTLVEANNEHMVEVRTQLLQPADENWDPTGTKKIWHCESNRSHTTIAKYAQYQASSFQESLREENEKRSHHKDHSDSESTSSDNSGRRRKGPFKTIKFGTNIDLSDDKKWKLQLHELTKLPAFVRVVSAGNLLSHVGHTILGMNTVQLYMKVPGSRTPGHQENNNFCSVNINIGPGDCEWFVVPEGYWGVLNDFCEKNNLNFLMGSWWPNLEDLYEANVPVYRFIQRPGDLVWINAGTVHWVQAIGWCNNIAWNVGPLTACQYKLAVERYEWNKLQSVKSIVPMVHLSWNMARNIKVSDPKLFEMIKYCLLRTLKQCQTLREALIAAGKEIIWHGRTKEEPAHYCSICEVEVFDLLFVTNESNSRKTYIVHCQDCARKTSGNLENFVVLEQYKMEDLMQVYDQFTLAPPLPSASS
Method: as §1, §2

KDM5A = biological target: T3, KDM5A (Homo sapiens, UniProt P29375); test: KDM5A enzymatic assay (CisBio HTRF); type: biochemical; conditions: enzyme concentration 2.5 nM; IC50 lower than enzyme concentration, likely underestimates potency
T3 construct: purchased Reaction Biology Corp (assay run there as a contract service)
T3 sequence (P29375 whole entry): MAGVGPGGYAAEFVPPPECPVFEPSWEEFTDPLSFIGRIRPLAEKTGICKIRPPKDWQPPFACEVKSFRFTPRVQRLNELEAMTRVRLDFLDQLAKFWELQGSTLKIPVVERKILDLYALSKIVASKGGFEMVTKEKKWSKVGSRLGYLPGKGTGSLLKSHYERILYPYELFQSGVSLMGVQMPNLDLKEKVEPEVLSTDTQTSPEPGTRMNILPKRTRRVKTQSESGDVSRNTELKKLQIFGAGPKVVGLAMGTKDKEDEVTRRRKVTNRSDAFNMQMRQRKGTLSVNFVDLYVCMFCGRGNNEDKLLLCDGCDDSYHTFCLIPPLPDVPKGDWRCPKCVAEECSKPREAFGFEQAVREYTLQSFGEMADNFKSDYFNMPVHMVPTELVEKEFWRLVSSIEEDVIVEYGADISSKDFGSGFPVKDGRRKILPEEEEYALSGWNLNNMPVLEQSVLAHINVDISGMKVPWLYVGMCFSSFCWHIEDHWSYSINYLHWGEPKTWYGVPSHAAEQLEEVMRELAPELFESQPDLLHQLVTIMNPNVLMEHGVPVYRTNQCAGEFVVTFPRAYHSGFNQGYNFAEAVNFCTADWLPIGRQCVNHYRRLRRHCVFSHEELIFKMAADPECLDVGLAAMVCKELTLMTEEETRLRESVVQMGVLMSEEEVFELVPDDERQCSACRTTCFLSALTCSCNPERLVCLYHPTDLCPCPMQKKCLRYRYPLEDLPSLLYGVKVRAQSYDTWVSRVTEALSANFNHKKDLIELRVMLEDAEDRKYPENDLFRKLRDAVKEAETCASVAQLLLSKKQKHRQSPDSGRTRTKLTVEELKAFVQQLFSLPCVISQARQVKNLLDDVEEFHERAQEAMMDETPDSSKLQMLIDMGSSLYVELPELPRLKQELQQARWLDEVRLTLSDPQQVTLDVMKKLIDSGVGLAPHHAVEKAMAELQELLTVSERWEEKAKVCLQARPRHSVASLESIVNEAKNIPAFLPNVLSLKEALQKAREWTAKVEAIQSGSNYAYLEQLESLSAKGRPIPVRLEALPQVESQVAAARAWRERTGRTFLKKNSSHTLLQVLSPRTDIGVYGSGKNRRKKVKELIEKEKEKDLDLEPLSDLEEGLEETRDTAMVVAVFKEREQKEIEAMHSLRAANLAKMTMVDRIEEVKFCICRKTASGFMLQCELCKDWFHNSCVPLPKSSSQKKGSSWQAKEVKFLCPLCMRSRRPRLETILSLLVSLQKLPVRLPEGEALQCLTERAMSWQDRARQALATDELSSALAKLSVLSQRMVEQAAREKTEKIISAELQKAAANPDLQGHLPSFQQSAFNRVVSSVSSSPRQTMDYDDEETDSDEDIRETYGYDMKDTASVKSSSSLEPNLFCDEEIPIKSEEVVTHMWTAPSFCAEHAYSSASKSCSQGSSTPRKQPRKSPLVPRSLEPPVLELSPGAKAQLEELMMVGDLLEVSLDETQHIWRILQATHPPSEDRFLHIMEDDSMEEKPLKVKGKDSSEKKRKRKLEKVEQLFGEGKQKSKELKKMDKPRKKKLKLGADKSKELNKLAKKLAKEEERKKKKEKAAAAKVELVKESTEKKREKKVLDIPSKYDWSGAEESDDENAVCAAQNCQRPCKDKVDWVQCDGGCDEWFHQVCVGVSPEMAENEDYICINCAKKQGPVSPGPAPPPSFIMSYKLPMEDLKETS
Method: as §3, §2

KDM2B = biological target: T4, KDM2B (Homo sapiens, UniProt Q8NHM5); test: KDM2B enzymatic assay (AlphaLISA); type: biochemical; conditions: enzyme concentration 2 nM
T4 sequence (Q8NHM5 1-1336): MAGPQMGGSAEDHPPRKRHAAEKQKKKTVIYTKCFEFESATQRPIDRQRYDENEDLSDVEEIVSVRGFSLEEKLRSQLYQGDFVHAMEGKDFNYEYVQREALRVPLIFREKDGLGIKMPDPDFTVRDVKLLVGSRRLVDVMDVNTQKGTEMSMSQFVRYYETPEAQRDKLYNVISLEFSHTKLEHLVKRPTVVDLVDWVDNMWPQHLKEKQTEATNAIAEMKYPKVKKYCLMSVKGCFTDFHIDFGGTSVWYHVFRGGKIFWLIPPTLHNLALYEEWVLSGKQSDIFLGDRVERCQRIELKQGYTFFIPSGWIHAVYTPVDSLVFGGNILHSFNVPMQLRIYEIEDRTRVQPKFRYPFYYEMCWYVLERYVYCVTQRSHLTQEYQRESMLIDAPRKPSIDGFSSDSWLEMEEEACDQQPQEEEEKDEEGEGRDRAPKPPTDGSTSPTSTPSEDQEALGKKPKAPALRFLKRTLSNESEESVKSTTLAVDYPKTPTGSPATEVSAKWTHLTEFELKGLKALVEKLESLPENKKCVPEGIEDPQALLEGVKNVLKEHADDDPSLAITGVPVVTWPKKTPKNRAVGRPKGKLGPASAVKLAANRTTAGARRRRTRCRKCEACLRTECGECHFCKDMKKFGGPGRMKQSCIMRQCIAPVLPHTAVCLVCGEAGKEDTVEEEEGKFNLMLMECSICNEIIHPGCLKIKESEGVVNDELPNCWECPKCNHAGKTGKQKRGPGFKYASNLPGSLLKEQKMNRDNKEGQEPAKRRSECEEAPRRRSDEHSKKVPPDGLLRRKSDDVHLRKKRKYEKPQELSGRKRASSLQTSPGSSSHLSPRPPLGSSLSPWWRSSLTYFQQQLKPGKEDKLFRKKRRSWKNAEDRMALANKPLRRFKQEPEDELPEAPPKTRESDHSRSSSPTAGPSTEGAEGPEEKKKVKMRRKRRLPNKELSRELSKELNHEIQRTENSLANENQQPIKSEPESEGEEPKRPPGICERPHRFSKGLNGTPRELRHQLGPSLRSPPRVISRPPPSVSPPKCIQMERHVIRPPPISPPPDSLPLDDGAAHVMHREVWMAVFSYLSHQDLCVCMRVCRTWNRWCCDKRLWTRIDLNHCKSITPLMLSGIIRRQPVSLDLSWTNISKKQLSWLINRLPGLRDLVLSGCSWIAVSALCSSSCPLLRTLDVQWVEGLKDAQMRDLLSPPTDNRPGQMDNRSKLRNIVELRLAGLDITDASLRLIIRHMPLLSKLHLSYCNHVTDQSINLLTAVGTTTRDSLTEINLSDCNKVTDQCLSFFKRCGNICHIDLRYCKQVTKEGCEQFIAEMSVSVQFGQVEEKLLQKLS
Method: as §1, §2

[1] = Cytotoxicity CC50, Gal-HepG2; type: cell-based; conditions: human, Gal-HepG2 cells (galactose adapted hepatoblastoma cell line)
Source text: (§4) a Values represent the geometric mean and multiplicative standard deviation of 3 – 5 primary human hepatocyte (PHH) donors or 5 – 10 independent experiments.
(§5) b MT-4: human T-lymphoblastoid cell line; PBMC: peripheral blood mononuclear cell; Gal-HepG2: galactose adapted human hepatoblastoma cell line; Huh-7: human hepatoma cell line; Gal-PC3: galactose adapted human prostate carcinoma cell line; MRC-5: Medical Research Council 5 embryonal lung fibroblast; NRVM: neonatal rat ventricular cardiomyocytes

Cytotoxicity CC50, MT-4 = type: cell-based; conditions: human, MT-4 cells (T-lymphoblastoid cell line)
Source text: as §4, §5

Cytotoxicity CC50, PBMC = type: cell-based; conditions: human, PBMC (peripheral blood mononuclear cells)
Source text: as §4, §5

Cytotoxicity CC50, PHH = type: cell-based; conditions: human, primary human hepatocytes (PHH)
Source text: as §4, §5

Cytotoxicity CC50, NRVM = type: cell-based; conditions: rat, NRVM (neonatal rat ventricular cardiomyocytes)
Source text: as §4, §5

[2] = Cytotoxicity CC50, Gal-PC3; type: cell-based; conditions: human
Source text: as §4, §5

Cytotoxicity CC50, Huh-7 = type: cell-based; conditions: human, Huh-7 cells (hepatoma cell line)
Source text: as §4, §5

Cytotoxicity CC50, MRC-5 = type: cell-based; conditions: human, MRC-5 cells (embryonal lung fibroblasts)
Source text: as §4, §5

SET7/9 = biological target: T5, SET7/9 (Homo sapiens, UniProt Q8WTS6); test: Histone methyltransferase enzymatic assay, SET7/9; type: biochemical; conditions: enzyme conc. 100 nM
T5 construct: 2-366; purchased RBC (read as Reaction Biology Corporation, named)
Method: (§6) Histone methyltransferase assays were performed in 96-well half-area optiplates (PerkinElmer) at room temperature. All concentrations are final unless noted otherwise. Compounds were serially diluted in DMSO and the final DMSO concentration was 1%. A 24 μL reaction mixture contained compound, enzyme, 200 nM of nucleosome or histone substrate, 400 nM ^3H-SAM (83.1 Ci/mmol), 50 mM Tris-HCl (pH 8.0), 50 mM NaCl, 5 mM MgCl2, 1 mM DTT, and 0.01% Tween-20. The plate was sealed, mixed on a Titramax plate shaker at 1200 rpm for 30 sec, and incubated at room temperature for 60 min. The reaction was quenched by addition of 24 μL mixture containing 5 mg/mL PVT-PEI beads and 300 μM unlabeled SAM in water. The plate was sealed, mixed as previously noted, incubated overnight, and read on a TopCount plate reader (PerkinElmer).
as §2

SETDB1 = biological target: T6, SETDB1 (Homo sapiens, UniProt Q15047); test: Histone methyltransferase enzymatic assay, SETDB1; type: biochemical; conditions: enzyme conc. 100 nM
T6 construct: 510-1290
Method: as §6, §2

NSD3 = biological target: T7, NSD3 (Homo sapiens, UniProt Q9BZ95); test: Histone methyltransferase enzymatic assay, NSD3; type: biochemical; conditions: enzyme conc. 100 nM
T7 construct: 1021-1322; purchased RBC (read as Reaction Biology Corporation, named)
Method: as §6, §2

GLP = biological target: T8, GLP (Homo sapiens, UniProt Q9H9B1); test: Histone methyltransferase enzymatic assay, GLP; type: biochemical
T8 construct: 894-1298; purchased RBC (read as Reaction Biology Corporation, named)
T8 sequence (Q9H9B1 894-1298): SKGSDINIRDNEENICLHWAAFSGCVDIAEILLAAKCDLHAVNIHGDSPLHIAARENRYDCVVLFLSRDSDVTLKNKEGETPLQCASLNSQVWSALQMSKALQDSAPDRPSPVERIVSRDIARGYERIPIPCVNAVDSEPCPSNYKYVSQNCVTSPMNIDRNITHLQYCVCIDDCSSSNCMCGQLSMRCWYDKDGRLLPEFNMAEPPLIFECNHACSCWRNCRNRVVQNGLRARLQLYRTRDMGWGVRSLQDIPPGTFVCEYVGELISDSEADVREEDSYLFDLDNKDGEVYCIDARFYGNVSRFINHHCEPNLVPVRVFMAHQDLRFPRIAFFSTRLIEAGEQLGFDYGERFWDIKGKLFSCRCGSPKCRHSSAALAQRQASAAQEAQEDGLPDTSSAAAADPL
Method: as §6, §2

NSD1 = biological target: T9, NSD1 (Homo sapiens, UniProt Q96L73); test: Histone methyltransferase enzymatic assay, NSD1; type: biochemical; conditions: enzyme conc. 50 nM
T9 construct: 1538-2696; purchased RBC (read as Reaction Biology Corporation, named)
Method: as §6, §2

Oc1cccc2cccnc12 [8-OH Quinoline, 8-hydroxyquinoline, reference compound]
IC50 (KDM6B): 6.4 µM | IC50 (KDM7B): 13 µM

CC1=C(/C=C/C(C)=C/C=C/C(C)=C\C(=O)O)C(C)(C)CCC1 [Accutane]
in vivo antiviral activity (HBV (genotype C, GTC)): lack of in vivo antiviral activity

CCN(CCN(C)C)C(=O)CNCc1cc(C(=O)O)c(Br)cn1 [GS-444]
fold reduced KDM5B inhibitory activity over GS-080 (KDM5B; IC50 for KDM5B compared with GS-080): 7000 fold | IC50 (KDM5B; enzyme concentration 1.2 nM, IC50 lower than enzyme concentration, likely underestimates potency): 2760 nM

O=C(O)c1ccnc(C(=O)O)c1 [PDCA, 2,4-Pyridinedicarboxylic acid, reference compound]
IC50 (KDM4B): 860 nM | IC50 (KDM6A): 99 µM | IC50 (KDM5A): 410 nM | IC50 (KDM2B): 19 µM

COc1ccc(C[C@H](N)C(=O)N[C@H]2[C@@H](O)[C@H](n3cnc4c(N(C)C)ncnc43)O[C@@H]2CO)cc1 [Puromycin, reference compound]
CC50 [1]: 1300 ± 1400 nM | CC50 (Cytotoxicity CC50, MT-4): 100 nM | CC50 (Cytotoxicity CC50, PBMC): 610 ± 1300 nM | CC50 (Cytotoxicity CC50, PHH): 1600 ± 1800 nM | CC50 (Cytotoxicity CC50, NRVM): 570 ± 1400 nM | CC50 [2]: 440 nM | CC50 (Cytotoxicity CC50, Huh-7): 670 ± 1500 nM | CC50 (Cytotoxicity CC50, MRC-5): 350 nM

Nc1ncnc2c1ncn2[C@@H]1O[C@H](CSCC[C@H](N)C(=O)O)[C@@H](O)[C@H]1O [SAH, S-(5′-Adenosyl)-L-homocysteine, reference compound]
IC50 (SET7/9): 70 µM | IC50 (SETDB1): 17 µM | IC50 (NSD3): 15 µM | IC50 (GLP): 2200 nM | IC50 (NSD1): 93 µM

Source: article PMC9728921, “Characterization of a KDM5 small molecule inhibitor with antiviral activity against hepatitis B virus” (PLOS ONE, 2022)
